#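 Following 48 hours of exposure in 96-well plates, responses at five concentrations were used to interpolate endpoints linearly. The concentration for 50% growth inhibition is given as GI50.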 Calls of active or inactive are those of the source. Rule as the data show it: active = GI50 up to about 1.1 µM and inactive = higher.
# Columns and labels:
# Assay in all cases: growth of human tumour cells (NCI), 48 h
# [1] = system: OVCAR-3
# [2] = system: CCRF-CEM
# [3] = system: A549
# [4] = system: SF-268
# [5] = system: SR
# [6] = system: K562
# [7] = system: OVCAR-4
# [8] = system: HOP-92
# [9] = system: ACHN
# [10] = system: COLO 205
# [11] = system: MDA-MB-231
# [12] = system: SF-539
# [13] = system: UO-31
# [14] = system: NCI-H23
# [15] = system: HL-60
# [16] = system: SK-MEL-28
# [17] = system: RXF 393
# [18] = system: HOP-62
# [19] = system: T47D
SMILES,GI50 [1],GI50 [2],GI50 [3],GI50 [4],GI50 [5],GI50 [6],GI50 [7],GI50 [8],GI50 [9],GI50 [10],GI50 [11],GI50 [12],GI50 [13],GI50 [14],GI50 [15],GI50 [16],GI50 [17],GI50 [18],GI50 [19]
CC(NC(=O)c1ccc(NP(=O)(OCc2ccc([N+](=O)[O-])o2)N(C)CCCCCl)cc1)c1ccc(OCC2CCCCC2)c(C(N)=O)c1 (centres undefined),11.6 µM (inactive),0.904 µM (active),10.6 µM (inactive),13.3 µM (inactive),10.5 µM (inactive),17.3 µM (inactive),12.2 µM (inactive),2.95 µM (inactive),29 µM (inactive),10.9 µM (inactive),14.9 µM (inactive),16.5 µM (inactive),43.4 µM (inactive),16.9 µM (inactive),16 µM (inactive),17 µM (inactive),10.9 µM (inactive),16.9 µM (inactive),5.37 µM (inactive)
Cc1cc(S(=O)(=O)Nc2nc(Nc3ccc4ccccc4c3)n[nH]2)c(S)cc1Cl,23.2 µM (inactive),> 100 µM (inactive),55.7 µM (inactive),72.1 µM (inactive),> 100 µM (inactive),> 100 µM (inactive),79.1 µM (inactive),52.5 µM (inactive),84.9 µM (inactive),57.8 µM (inactive),92.9 µM (inactive),14 µM (inactive),> 100 µM (inactive),43 µM (inactive),> 100 µM (inactive),> 100 µM (inactive),75.2 µM (inactive),28.1 µM (inactive),63.7 µM (inactive)
COc1ccc(/C=C/C(=O)N[C@@H]2C(=O)N3[C@@H]2SC(C)(C)[C@@H]3C(=O)O)cc1,> 100 µM (inactive),> 100 µM (inactive),> 100 µM (inactive),> 100 µM (inactive),> 100 µM (inactive),> 100 µM (inactive),> 100 µM (inactive),47.8 µM (inactive),> 100 µM (inactive),> 100 µM (inactive),> 100 µM (inactive),> 100 µM (inactive),> 100 µM (inactive),> 100 µM (inactive),> 100 µM (inactive),> 100 µM (inactive),> 100 µM (inactive),> 100 µM (inactive),> 100 µM (inactive)
O=C(NC1=C(Cl)C(=O)c2ccccc2C1=O)C(=O)c1c(O)c2ccccc2oc1=O,1.16 µM (inactive),5.94 µM (inactive),2.33 µM (inactive),5.62 µM (inactive),3.04 µM (inactive),5.15 µM (inactive),7.4 µM (inactive),12.4 µM (inactive),3.4 µM (inactive),5.87 µM (inactive),3.48 µM (inactive),2.8 µM (inactive),7.66 µM (inactive),1.53 µM (inactive),3.21 µM (inactive),2.39 µM (inactive),5.62 µM (inactive),5.46 µM (inactive),4.83 µM (inactive)
O=[N+]([O-])c1c(Br)cc(Br)c2c1Nc1c(ccc(Cl)c1Cl)S2,4.8 µM (inactive),2.39 µM (inactive),20.2 µM (inactive),16.3 µM (inactive),5.86 µM (inactive),3.45 µM (inactive),13.9 µM (inactive),18.7 µM (inactive),16.8 µM (inactive),11.9 µM (inactive),13.2 µM (inactive),22.2 µM (inactive),7.91 µM (inactive),14.4 µM (inactive),2.85 µM (inactive),16.6 µM (inactive),19.6 µM (inactive),18.8 µM (inactive),1.61 µM (inactive)
Cc1cn(C2CC(Br)C(COC(c3ccccc3)(c3ccccc3)c3ccccc3)O2)c(=O)[nH]c1=O (centres undefined),12.6 µM (inactive),4.88 µM (inactive),10.5 µM (inactive),13.8 µM (inactive),5 µM (inactive),7.98 µM (inactive),13 µM (inactive),11.2 µM (inactive),13.8 µM (inactive),14 µM (inactive),17.7 µM (inactive),17.2 µM (inactive),6.71 µM (inactive),7.4 µM (inactive),4.76 µM (inactive),16.7 µM (inactive),11.2 µM (inactive),16.9 µM (inactive),12.3 µM (inactive)
CC1=C(C(=O)OC(C)C)C(c2cccc([N+](=O)[O-])c2)C(C(=O)OC(CO[N+](=O)[O-])CO[N+](=O)[O-])=C(C)N1 (centres undefined),3.45 µM (inactive),1.92 µM (inactive),3.37 µM (inactive),2.26 µM (inactive),3.22 µM (inactive),2.76 µM (inactive),2.81 µM (inactive),1.78 µM (inactive),3.44 µM (inactive),2.93 µM (inactive),3.59 µM (inactive),3.01 µM (inactive),3.44 µM (inactive),5.37 µM (inactive),2 µM (inactive),11.4 µM (inactive),7.52 µM (inactive),3.85 µM (inactive),3.99 µM (inactive)
Cc1ccc(/N=N/c2c(C)nn(C(=O)CC(=O)Nc3ccccc3)c2C)cc1C,> 100 µM (inactive),> 100 µM (inactive),> 100 µM (inactive),> 100 µM (inactive),> 100 µM (inactive),,> 100 µM (inactive),> 100 µM (inactive),> 100 µM (inactive),> 100 µM (inactive),> 100 µM (inactive),> 100 µM (inactive),> 100 µM (inactive),> 100 µM (inactive),> 100 µM (inactive),> 100 µM (inactive),> 100 µM (inactive),> 100 µM (inactive),> 100 µM (inactive)
CC(=O)N(C(C)=O)c1cc2c3c(c1)CCCN3CCC2,> 10 µM (inactive),> 10 µM (inactive),> 10 µM (inactive),> 10 µM (inactive),> 10 µM (inactive),> 10 µM (inactive),> 10 µM (inactive),> 10 µM (inactive),> 10 µM (inactive),> 10 µM (inactive),> 10 µM (inactive),> 10 µM (inactive),,> 10 µM (inactive),> 10 µM (inactive),> 10 µM (inactive),> 10 µM (inactive),> 10 µM (inactive),> 10 µM (inactive)
O=C(Nc1cc2c(=O)oc3ccccc3c2oc1=O)c1cccnc1,> 100 µM (inactive),> 100 µM (inactive),> 100 µM (inactive),,78.5 µM (inactive),> 100 µM (inactive),> 100 µM (inactive),> 100 µM (inactive),50 µM (inactive),> 100 µM (inactive),> 100 µM (inactive),> 100 µM (inactive),> 100 µM (inactive),> 100 µM (inactive),48 µM (inactive),> 100 µM (inactive),> 100 µM (inactive),,> 100 µM (inactive)
O=[N+]([O-])c1ccc2nnnn2c1,13.5 µM (inactive),,45.3 µM (inactive),70.6 µM (inactive),4.76 µM (inactive),3.18 µM (inactive),78.7 µM (inactive),96.6 µM (inactive),10.7 µM (inactive),23.9 µM (inactive),10.8 µM (inactive),14.9 µM (inactive),7.89 µM (inactive),22.6 µM (inactive),16 µM (inactive),20.8 µM (inactive),> 100 µM (inactive),31 µM (inactive),> 100 µM (inactive)
